BindingDB's records for doi:10.1021/jm0304156 (Harvard Medical School, 2003)

Test: Binding affinity against opioid receptor delta 1 using [3H]naltrindole as radioligand in guinea pig brain membranes.
With `c1cc2c(cc1-c1nnn[nH]1)[C@@]13CCCC[C@H]1[C@@H](C2)N(CC1CCC1)CC3` [3-(1'H-Tetrazol-5'-yl)-N-cyclobutylmethylmorphinan] the Ki was over 10000 nM.
In the case of `CN1CC[C@]23CCCC[C@H]2[C@H]1Cc1ccc(-c2nnn[nH]2)cc13` [3-(1'H-Tetrazol-5'-yl)-N-methylmorphinan], the Ki is reported as over 10000 nM.
In the case of `Nc1ccc2c(c1)[C@@]13CCCC[C@H]1[C@@H](C2=O)N(CC1CCC1)CC3` [3-Amino-10-keto-N-cyclobutylmethylmorphinan], the Ki is reported as 600 nM.
`NCc1ccc2c(c1)[C@@]13CCCC[C@H]1[C@@H](C2)N(CC1CCC1)CC3` [3-Aminomethyl-N-cyclobutylmethylmorphinan] showed a Ki of 410 nM.
In the case of `CN1CC[C@]23CCCC[C@H]2[C@H]1Cc1ccc(CN)cc13` [3-Aminomethyl-N-methylmorphinan], the Ki is reported as 2500 nM.
`NC(=O)c1ccc2c(c1)[C@@]13CCCC[C@H]1[C@@H](C2=O)N(CC1CCC1)CC3` [3-Carboxamido-10-keto-N-cyclobutylmethylmorphinan] gave a Ki of 50 nM.
In the case of `NC(=O)c1ccc2c(c1)[C@@]13CCCC[C@H]1[C@@H](C2)N(CC1CCC1)CC3` [3-Carboxamido-N-cyclobutylmethylmorphinan], the Ki is reported as 4 nM.
In the case of `NC(=O)c1ccc2c(c1)[C@@]13CCCC[C@H]1[C@@H](C2)N(CC1CC1)CC3` [3-Carboxamido-N-cyclopropylmethylmorphinan], the Ki is reported as 1 nM.
With `CN1CC[C@]23CCCC[C@H]2[C@H]1Cc1ccc(C(N)=O)cc13` [3-Carboxamido-N-methylmorphinan] the Ki was 13 nM.
`O=C(O)c1ccc2c(c1)[C@@]13CCCC[C@H]1[C@@H](C2=O)N(CC1CCC1)CC3` [3-Carboxyl-10-keto-N-cyclobutylmethyl morphinan] gave a Ki of 800 nM.
With `N#Cc1ccc2c(c1)[C@@]13CCCC[C@H]1[C@@H](C2=O)N(CC1CCC1)CC3` [3-Cyano-10-keto-N-cyclobutylmethylmorphinan] the Ki was over 10000 nM.
`N#Cc1ccc2c(c1)[C@@]13CCCC[C@H]1[C@@H](C2)N(CC1CCC1)CC3` [3-Cyano-N-cyclobutylmethylmorphinan] gave a Ki of 1900 nM.
`CN1CC[C@]23CCCC[C@H]2[C@H]1Cc1ccc(C#N)cc13` [3-Cyano-N-methylmorphinan] gave a Ki of over 1000 nM.
For `O=C1c2ccc(O)cc2[C@@]23CCCC[C@H]2[C@@H]1N(CCF)CC3` [3-Hydroxy-10-keto-N-(2-fluoroethyl)morphinan], the Ki was over 10000 nM.
`COCCN1CC[C@]23CCCC[C@H]2[C@H]1C(=O)c1ccc(O)cc13` [3-Hydroxy-10-keto-N-(2-methoxyethyl)morphinan] showed a Ki of over 10000 nM.
`O=C1c2ccc(O)cc2[C@@]23CCCC[C@H]2[C@@H]1N(Cc1ccc2ccccc2c1)CC3` [3-Hydroxy-10-keto-N-(2-naphthylmethyl)morphinan] gave a Ki of over 10000 nM.
Work on `CC(C)=CCN1CC[C@]23CCCC[C@H]2[C@H]1C(=O)c1ccc(O)cc13` [3-Hydroxy-10-keto-N-(3,3-dimethylallyl)morphinan] yielded a Ki of 1100 nM.
`O=C1c2ccc(O)cc2[C@@]23CCCC[C@H]2[C@@H]1N(C[C@@H]1CCCO1)CC3` [3-Hydroxy-10-keto-N-(tetrahydrofuran-2-yl)methylmorphinan] showed a Ki of 1 nM.
In the case of `O=C1c2ccc(O)cc2[C@@]23CCCC[C@H]2[C@@H]1N(CC1CC1)CC3` [3-Hydroxy-10-keto-N-cyclopropylmethylmorphinan], the Ki is reported as 150 nM.
In the case of `CN1CC[C@]23CCCC[C@H]2[C@H]1C(=O)c1ccc(O)cc13` [3-Hydroxy-10-keto-N-methylmorphinan], the Ki is reported as 1200 nM.
`COc1ccc2c(c1)[C@@]13CCCC[C@H]1[C@H](NCC3)C2=O` [3-Methoxy normorphinan] gave a Ki of 16 nM.
With `O=C1c2ccc(OCC3CCC3)cc2[C@@]23CCCC[C@H]2[C@@H]1N(CC1CCC1)CC3` [3-O-Cyclobutylmethyl-10-keto-N-cyclobutylmethylmorphinan] the Ki was over 10000 nM.
In the case of `C#CCOc1ccc2c(c1)[C@@]13CCCC[C@H]1[C@@H](C2=O)N(CC#C)CC3` [3-O-Propargyl-10-keto-N-propargylmorphinan], the Ki is reported as over 10000 nM.
`O=C1c2ccc(-c3nnn[nH]3)cc2[C@@]23CCCC[C@H]2[C@@H]1N(CC1CCC1)CC3` [3-Tetrazolo-10-keto-N-cyclobutylmethylmorphinan] gave a Ki of 1800 nM.
Compound `O=C1c2ccc(O)cc2[C@@]23CCCC[C@H]2[C@@H]1NCC3` [3-hydroxy-normorphinan] has a Ki of over 10000 nM.
